Values joined by “and” are separate entries in the source; they are usually repeats but may differ in a detail not shown here. Equal entries are not always repeated.

Assay [1] deals with adenomas in small intestines and colons of APC^min/+ mice. Nature of the assay: APC^min/+ model of spontaneous CRC. The format is in vivo, C57BL/6J-APC^min/+ mice. As to conditions: 20 mg/kg intraperitoneal injection every two days for 12 weeks. As for the experimental part:
C57BL/6J-APC^min/+ mice were obtained from Jackson Laboratory. […] The mice were sacrificed in the twentieth week. Tumor numbers were calculated, and tumors were imaged after longitudinal dissection of the small intestine and colon. Then, the small intestines and colons were sectioned and stained for immunohistochemistry.

For assay [2], the target named is T1, SIRT6 (Homo sapiens, UniProt Q8N6T7). As to the kind of experiment: Cellular thermal shift assay (CETSA) in HCT116 cells. The format is cell-based. As for the experimental part: CETSA was conducted as previously described. HCT116 cells were seeded in 10-cm cell culture dishes and grown to ~90% confluence. […] Cell pellets were collected by centrifugation (1,000 × g, 5 min, 4 °C), resuspended in 600 μL of 1× PBS, and distributed into different 0.2-mL tubes, each with 40 μL of cell suspension. The tubes were heated at the indicated temperature endpoints (38.5-51.5 °C) for 3 min in a PCR thermocycler. Immediately after heating, the tubes were incubated at room temperature for another 3 min. The samples were subjected to two freeze-thaw cycles in liquid nitrogen. Each cell lysate was centrifuged (15,000 × g for 20 min at 4 °C), and 25 μL of supernatant was collected. The supernatants were lysed in 25 μL of 2× SDS loading buffer at 95 °C for 10 min. Then, the samples were centrifuged, and the supernatants were analyzed by western blotting. Quantification of the SIRT6 level was performed with ImageJ V4. The signal intensity of each protein band on the western blots was normalized to the signal intensity observed at 38.5 °C. The corresponding signal intensities were plotted against temperature in GraphPad Prism V7. Each data point is shown as the mean ± s.e.m. of four independent experiments.
T1 sequence (Q8N6T7 whole entry): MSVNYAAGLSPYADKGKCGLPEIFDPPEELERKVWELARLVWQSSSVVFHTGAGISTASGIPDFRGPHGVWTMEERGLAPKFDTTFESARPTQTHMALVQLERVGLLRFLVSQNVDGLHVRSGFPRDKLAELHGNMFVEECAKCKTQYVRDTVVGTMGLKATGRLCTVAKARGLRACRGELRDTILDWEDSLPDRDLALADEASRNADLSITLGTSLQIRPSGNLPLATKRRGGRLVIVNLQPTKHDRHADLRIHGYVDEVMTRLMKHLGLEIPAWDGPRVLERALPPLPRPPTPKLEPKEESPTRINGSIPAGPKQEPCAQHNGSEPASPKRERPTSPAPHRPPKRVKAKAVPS

Assay [3] has as its target T1, SIRT6. As to the kind of experiment: Histone H3 deacetylation in HEK293T cells (western blot). The format is cell-based. Set-up: endogenous in cells; host or cells: HEK293T. The conditions noted are these: dose-dependent. As for the experimental part:
Western blot analysis was performed as described previously. […] After 48 h of treatment, the cells were lysed with 1× SDS and separated by SDS-PAGE, followed by incubation with specific primary antibodies overnight at 4 °C and then with HRP-linked anti-rabbit IgG (#7074, Cell Signaling Technology) or HRP-linked anti-mouse IgG (#7076, Cell Signaling Technology). An Immobilon Western Chemiluminescent HRP Substrate Kit (Merck Millipore) was used for detection. Information regarding the primary antibodies can be found in Table S6. Quantification of western blot data was performed using ImageJ V4.

The target of assay [4] is T1, SIRT6. Nature of the assay: FDL assay of SIRT6 deacylase activity (EALPKK-Myr-AMC). As to conditions: myristoyl peptide EALPKK-Myr-AMC. Also noted: WT (wild-type) full-length human SIRT6 was inserted into the pET28a-LIC vector; made in house; host or cells: Escherichia coli BL21 (DE3). The format is biochemical. As for the experimental part: According to previously described methods, WT (wild-type) full-length human SIRT6 was inserted into the pET28a-LIC vector (Addgene plasmid #26094). The plasmid was transformed into Escherichia coli BL21 (DE3) cells. Protein was purified using a nickel column and gel filtration. Purified protein was dialyzed into assay buffer (50 mM Tris-HCl [pH 8.0], 137 mM NaCl, 2.7 mM KCl, and 1 mM MgCl2) and used in all in vitro assays performed in this study.
[…], 5 μM WT SIRT6 was incubated in a 50-μL reaction mixture (2.5 mM NAD^+, […], compounds/DMSO, and assay buffer) at 37 °C for 2 h, quenched with 40 mM nicotinamide, and developed with 6 mg/mL trypsin for another 30 min at 25 °C. […] Fluorescence intensity was measured using a microplate reader (Synergy H4 Hybrid Reader, BioTek) at excitation and emission wavelengths of 360 nm and 460 nm, respectively. EC50 values were calculated by fitting the data points with the dose-response function in GraphPad Prism V7 (GraphPad Software). Each experiment was independently repeated three times in technical triplicates.

The target of assay [5] is T1, SIRT6. As to the kind of experiment: Histone deacetylase enzyme selectivity assay. The format is biochemical. As to conditions: SIRT6, selectivity panel. Set-up: endogenous in cells; host or cells: HEK293T. On the procedure: Then, the reaction was initiated by adding the fluorogenic HDAC acetylated substrate (also adding NAD^+ in the deacetylase assays of sirtuins) at the indicated concentrations at room temperature or 37 °C for the indicated durations. After incubation, the reaction was stopped with an equal volume of buffer containing 1 mL of HDAC developer (peptidase activity, BPS Bioscience); 20 µM trichostatin was also included for the termination in the deacetylase assays of HDAC1-11. After the indicated time, fluorescence intensity was measured using a microplate reader (Envision, Perkin Elmer) at excitation and emission wavelengths of 355 nm and 460 nm, respectively. We also developed deacetylase assays for SIRT5 and SIRT7, which were not available at CEREP. For SIRT5 deacetylation assay, HEK293T cells were transiently transfected with empty vector or pcDNA3.1-SIRT5-HA (10 μg/10 cm plate) using Neofect™ DNA transfection reagent. 48 h after transfection, cells were lysed in ice-cold NP-40 buffer (50 mM Tris-HCl [pH 8.0], 150 mM NaCl, 1% NP-40, and protease inhibitor cocktail) with rotation at 4 °C for 30 min. A particle-free supernatant solution was obtained by centrifugation at 13,600 × g for 15 min at 4 °C. […] The data points at various concentrations were expressed as percent inhibition or activation effects of the control activity. […]

`Cc1cc(F)c(Br)cc1NS(=O)(=O)c1ccc(NS(=O)(=O)c2cc(Cl)cc(Cl)c2)cc1CN1CCOC[C@H]1C` [MDL-811]: in assay [1], the “number and size of adenomas” value is “significantly reduced the number and size of adenomas”. For the same compound, on SIRT6 [2] (10 µM MDL-811, 24 h, HCT116 cells, DMSO 45.8 ± 0.3, mean ± s.e.m., four experiments), the “Melting Temperature (Tm) of SIRT6” value was 47.6 ± 0.1 °C and 47.6 °C. Besides, the ΔTm at 10 µM at SIRT6 [2] (HCT-116) came to 1.8 ± 0.2 °C. In addition, at SIRT6 [3], the “deacetylation of H3K9Ac, H3K18Ac, and H3K56Ac” value is “significantly enhanced the deacetylation of SIRT6 (H3K9Ac, H3K18Ac, and H3K56Ac)”. Besides, the “effect on SIRT6 deacylation” value at SIRT6 [4] is “no apparent effect”. Also, the Effect entry at SIRT6 [5] is given as “Activation”.

Source of the values: article PMC7255010, “Small-molecule activating SIRT6 elicits therapeutic effects and synergistically promotes anti-tumor activity of vitamin D3 in colorectal cancer” (Theranostics, 2020).
